From US20230085307A1, “PYRIDAZINONE COMPOUND AND HERBICIDE” (NISSAN CHEMICAL CORPORATION, priority 2019, published 2023)

How the values were obtained:
chickweed = test: Test Example 5: herbicidal effect by foliage application, plastic box (Table 20, symbol P); format: in vivo, common chickweed (Stellaria media); details: foliage application, 320 g/ha, three weeks after application
Outline: (§1)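 Plants sown in sterilized diluvial soil and grown 14 days in a greenhouse at 25° C to 30° C, then sprayed on the foliage with the compound's emulsion diluted in water to a predetermined herbicide amount. Injury to weeds and crops scored three weeks after application on a visual rating scale.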

southern crabgrass = test: Test Example 5: herbicidal effect by foliage application, plastic box (Table 20, symbol F); format: in vivo, southern crabgrass (Digitaria ciliaris); details: foliage application, 320 g/ha, three weeks after application
Outline: as §1

velvetleaf = test: Test Example 5: herbicidal effect by foliage application, plastic box (Table 20, symbol M); format: in vivo, velvetleaf (Abutilon theophrasti); details: foliage application, 320 g/ha, three weeks after application
Outline: as §1

green foxtail = test: Test Example 5: herbicidal effect by foliage application, plastic box (Table 20, symbol G); format: in vivo, green foxtail (Setaria viridis); details: foliage application, 320 g/ha, three weeks after application
Outline: as §1

windgrass = test: Test Example 4: herbicidal effect by soil treatment (Table 19, symbol L); format: in vivo, windgrass (Apera spica-venti); details: amount of applied herbicide 320 g/ha
Outline: (§2)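 Three weeks of greenhouse growth at 25° C. to 30° C. followed a uniform surface spray of water-diluted emulsion at a predetermined herbicide amount. Seeds had been sown beforehand under about 1.5 cm of sterilized diluvial soil. Grading followed criteria set out in an earlier test.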

Japanese bulrush = test: Test Example 2: herbicidal activity, application during weed generation under submerged conditions (Table 17, symbol B); format: in vivo, Japanese bulrush (Schoenoplectus juncoides); details: AAH 320 g/ha; application during weed generation, submerged conditions
Outline: (§3)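 In this pot test, flooded alluvial soil (water depth 4 cm) holds all three species sown as a mixture. Once seedlings have one to two leaves, the compound's emulsion, thinned with water to the intended dose, is poured on the water; grading follows after three weeks on the earlier criteria.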

Italian ryegrass = test: Test Example 4: herbicidal effect by soil treatment (Table 19, symbol K); format: in vivo, Italian ryegrass (Lolium multiflorum); details: amount of applied herbicide 320 g/ha
Outline: as §2

rice flat sedge = test: Test Example 3: herbicidal effect by foliage application, Wagner pot (Table 18, symbol E); format: in vivo, rice flat sedge (Cyperus iria); details: 320 g/ha
Outline: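 Plants were sown in alluvial soil held under 0.1–0.5 cm standing water and grown 14 days in a greenhouse at 25–30 °C. An emulsifiable formulation, water-diluted to the set dose, was then sprayed onto the foliage, and effects were scored three weeks later using previously defined criteria.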

persian speedwell [1] = test: Test Example 4: herbicidal effect by soil treatment (Table 19, symbol R); format: in vivo, Persian speedwell (Veronica persica); details: amount of applied herbicide 320 g/ha
Outline: as §2

wild oat = test: Test Example 4: herbicidal effect by soil treatment (Table 19, symbol I); format: in vivo, wild oat (Avena fatua); details: amount of applied herbicide 320 g/ha
Outline: as §2

oval-leafed pondweed [2] = test: Test Example 2: herbicidal activity, application during weed generation under submerged conditions (Table 17, symbol C); format: in vivo, oval-leafed pondweed (Monochoria vaginalis); details: AAH 320 g/ha; application during weed generation, submerged conditions
Outline: as §3

oval-leafed pondweed [3] = test: Test Example 1: herbicidal activity, application before weed generation under submerged conditions (Table 16, symbol C); format: in vivo, oval-leafed pondweed (Monochoria vaginalis); details: 320 g/ha applied herbicide
Outline: (§4)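 Emulsion formulation, water-diluted to set dose, was put onto the flooded surface (4 cm depth, alluvial soil) the same day weeds were sown and 2.5-leaf rice transplanted. After 3 weeks at 25-30 °C under glass, each species was rated 0 (≤5% kill) to 5 (≥90% kill).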

late watergrass = test: Test Example 1: herbicidal activity, application before weed generation under submerged conditions (Table 16, symbol A); format: in vivo, late watergrass (Echinochloa oryzicola); details: 320 g/ha applied herbicide
Outline: as §4

barnyard grass = test: Test Example 5: herbicidal effect by foliage application, plastic box (Table 20, symbol H); format: in vivo, barnyard grass (Echinochloa crus-galli); details: foliage application, 320 g/ha, three weeks after application
Outline: as §1

persian speedwell [4] = test: Test Example 5: herbicidal effect by foliage application, plastic box (Table 20, symbol R); format: in vivo, Persian speedwell (Veronica persica); details: foliage application, 320 g/ha, three weeks after application
Outline: as §1

redroot pigweed = test: Test Example 5: herbicidal effect by foliage application, plastic box (Table 20, symbol N); format: in vivo, redroot pigweed (Amaranthus retroflexus); details: foliage application, 320 g/ha, three weeks after application
Outline: as §1

SMILES	herbicidal effect grade, P: chickweed (chickweed)	herbicidal effect grade, F: southern crabgrass (southern crabgrass)	herbicidal effect grade, M: velvetleaf (velvetleaf)	herbicidal effect grade, G: green foxtail (green foxtail)	herbicidal effect rating, L: windgrass (windgrass)	herbicidal effect rating, B: Japanese bulrush (Japanese bulrush)	herbicidal effect rating, K: Italian ryegrass (Italian ryegrass)	herbicidal effect on E (rice flat sedge), rating 0-5 (rice flat sedge)	herbicidal effect rating, R: persian speedwell (persian speedwell [1])	herbicidal effect rating, I: wild oat (wild oat)	herbicidal effect rating, C: oval-leafed pondweed (oval-leafed pondweed [2])	Herbicidal effect on C: oval-leafed pondweed (grade 0-5) (oval-leafed pondweed [3])	Herbicidal effect on A: late watergrass (grade 0-5) (late watergrass)	herbicidal effect grade, H: barnyard grass (barnyard grass)	herbicidal effect grade, R: persian speedwell (persian speedwell [4])	herbicidal effect grade, N: redroot pigweed (redroot pigweed)
Cc1nn(C)c(=O)c(-c2c(-c3ccc(OC(C)C)cc3)sc3ccccc23)c1O [1-020]	5 (Herbicidal rate of 90% or more (almost completely withered))	3 (Herbicidal rate of 40% or more and less than 70%)	3 (Herbicidal rate of 40% or more and less than 70%)	3 (Herbicidal rate of 40% or more and less than 70%)	0 (Herbicidal rate of 5% or less (almost no effect))	3 (Herbicidal rate of 40% or more and less than 70%)	3 (Herbicidal rate of 40% or more and less than 70%)	5 (Herbicidal rate of 90% or more (almost completely withered))	5 (Herbicidal rate of 90% or more (almost completely withered))	0 (Herbicidal rate of 5% or less (almost no effect))	3 (Herbicidal rate of 40% or more and less than 70%)	4 (Herbicidal rate of 70% or more and less than 90%)	4 (Herbicidal rate of 70% or more and less than 90%)	4 (Herbicidal rate of 70% or more and less than 90%)	5 (Herbicidal rate of 90% or more (almost completely withered))	3 (Herbicidal rate of 40% or more and less than 70%)
CCCC(=O)Oc1c(C)nn(C)c(=O)c1-c1c(-c2ccc(OC(C)C)cc2)sc2ccccc12 [1-021]	5 (Herbicidal rate of 90% or more (almost completely withered))	3 (Herbicidal rate of 40% or more and less than 70%)	3 (Herbicidal rate of 40% or more and less than 70%)	4 (Herbicidal rate of 70% or more and less than 90%)	0 (Herbicidal rate of 5% or less (almost no effect))	3 (Herbicidal rate of 40% or more and less than 70%)	1 (Herbicidal rate of 5% or more and less than 20%)	5 (Herbicidal rate of 90% or more (almost completely withered))	5 (Herbicidal rate of 90% or more (almost completely withered))	0 (Herbicidal rate of 5% or less (almost no effect))	0 (Herbicidal rate of 5% or less (almost no effect))	4 (Herbicidal rate of 70% or more and less than 90%)	4 (Herbicidal rate of 70% or more and less than 90%)	4 (Herbicidal rate of 70% or more and less than 90%)	5 (Herbicidal rate of 90% or more (almost completely withered))	4 (Herbicidal rate of 70% or more and less than 90%)
CCCCOc1ccc(-c2sc3ccccc3c2-c2c(O)c(C)nn(C)c2=O)cc1 [1-024]	5 (Herbicidal rate of 90% or more (almost completely withered))	5 (Herbicidal rate of 90% or more (almost completely withered))	5 (Herbicidal rate of 90% or more (almost completely withered))	5 (Herbicidal rate of 90% or more (almost completely withered))	0 (Herbicidal rate of 5% or less (almost no effect))	4 (Herbicidal rate of 70% or more and less than 90%)	0 (Herbicidal rate of 5% or less (almost no effect))	5 (Herbicidal rate of 90% or more (almost completely withered))	4 (Herbicidal rate of 70% or more and less than 90%)	0 (Herbicidal rate of 5% or less (almost no effect))	5 (Herbicidal rate of 90% or more (almost completely withered))	5 (Herbicidal rate of 90% or more (almost completely withered))	5 (Herbicidal rate of 90% or more (almost completely withered))	5 (Herbicidal rate of 90% or more (almost completely withered))	5 (Herbicidal rate of 90% or more (almost completely withered))	5 (Herbicidal rate of 90% or more (almost completely withered))
CCCCOc1ccc(-c2sc3ccccc3c2-c2c(OC(=O)CCC)c(C)nn(C)c2=O)cc1 [1-025]	5 (Herbicidal rate of 90% or more (almost completely withered))	3 (Herbicidal rate of 40% or more and less than 70%)	5 (Herbicidal rate of 90% or more (almost completely withered))	3 (Herbicidal rate of 40% or more and less than 70%)	0 (Herbicidal rate of 5% or less (almost no effect))	3 (Herbicidal rate of 40% or more and less than 70%)	0 (Herbicidal rate of 5% or less (almost no effect))	5 (Herbicidal rate of 90% or more (almost completely withered))	3 (Herbicidal rate of 40% or more and less than 70%)	0 (Herbicidal rate of 5% or less (almost no effect))	3 (Herbicidal rate of 40% or more and less than 70%)	4 (Herbicidal rate of 70% or more and less than 90%)	3 (Herbicidal rate of 40% or more and less than 70%)	4 (Herbicidal rate of 70% or more and less than 90%)	5 (Herbicidal rate of 90% or more (almost completely withered))	5 (Herbicidal rate of 90% or more (almost completely withered))
CCCC(=O)Oc1c(C)nn(C)c(=O)c1-c1c(-c2ccc(SC)cc2)sc2ccccc12 [1-037]	5 (Herbicidal rate of 90% or more (almost completely withered))	3 (Herbicidal rate of 40% or more and less than 70%)	5 (Herbicidal rate of 90% or more (almost completely withered))	5 (Herbicidal rate of 90% or more (almost completely withered))	0 (Herbicidal rate of 5% or less (almost no effect))	1 (Herbicidal rate of 5% or more and less than 20%)	1 (Herbicidal rate of 5% or more and less than 20%)	5 (Herbicidal rate of 90% or more (almost completely withered))	3 (Herbicidal rate of 40% or more and less than 70%)	0 (Herbicidal rate of 5% or less (almost no effect))	3 (Herbicidal rate of 40% or more and less than 70%)	3 (Herbicidal rate of 40% or more and less than 70%)	4 (Herbicidal rate of 70% or more and less than 90%)	4 (Herbicidal rate of 70% or more and less than 90%)	5 (Herbicidal rate of 90% or more (almost completely withered))	5 (Herbicidal rate of 90% or more (almost completely withered))
